Data from US20160074374A1, “CORRECTORS ACTING THROUGH MSD1 OF CFTR PROTEIN” (VERTEX PHARMACEUTICALS INCORPORATED, priority 2013, published 2016).
“Also recorded” adds a separate entry of the source.

What was measured:
ΔF508-CFTR = ΔF508-CFTR (Homo sapiens, UniProt P13569, DEL508-508); design: primary cultures of human bronchial epithelial cells isolated from subjects with CF; host or cells: primary human bronchial epithelial cells (Van Goor 2011); CF patients in a 28-day study (Clancy 2012); details: bronchial epithelial cells from CF subjects; cited from earlier work
Sequence of ΔF508-CFTR (P13569 with tags, fused parts or gaps DEL508-508): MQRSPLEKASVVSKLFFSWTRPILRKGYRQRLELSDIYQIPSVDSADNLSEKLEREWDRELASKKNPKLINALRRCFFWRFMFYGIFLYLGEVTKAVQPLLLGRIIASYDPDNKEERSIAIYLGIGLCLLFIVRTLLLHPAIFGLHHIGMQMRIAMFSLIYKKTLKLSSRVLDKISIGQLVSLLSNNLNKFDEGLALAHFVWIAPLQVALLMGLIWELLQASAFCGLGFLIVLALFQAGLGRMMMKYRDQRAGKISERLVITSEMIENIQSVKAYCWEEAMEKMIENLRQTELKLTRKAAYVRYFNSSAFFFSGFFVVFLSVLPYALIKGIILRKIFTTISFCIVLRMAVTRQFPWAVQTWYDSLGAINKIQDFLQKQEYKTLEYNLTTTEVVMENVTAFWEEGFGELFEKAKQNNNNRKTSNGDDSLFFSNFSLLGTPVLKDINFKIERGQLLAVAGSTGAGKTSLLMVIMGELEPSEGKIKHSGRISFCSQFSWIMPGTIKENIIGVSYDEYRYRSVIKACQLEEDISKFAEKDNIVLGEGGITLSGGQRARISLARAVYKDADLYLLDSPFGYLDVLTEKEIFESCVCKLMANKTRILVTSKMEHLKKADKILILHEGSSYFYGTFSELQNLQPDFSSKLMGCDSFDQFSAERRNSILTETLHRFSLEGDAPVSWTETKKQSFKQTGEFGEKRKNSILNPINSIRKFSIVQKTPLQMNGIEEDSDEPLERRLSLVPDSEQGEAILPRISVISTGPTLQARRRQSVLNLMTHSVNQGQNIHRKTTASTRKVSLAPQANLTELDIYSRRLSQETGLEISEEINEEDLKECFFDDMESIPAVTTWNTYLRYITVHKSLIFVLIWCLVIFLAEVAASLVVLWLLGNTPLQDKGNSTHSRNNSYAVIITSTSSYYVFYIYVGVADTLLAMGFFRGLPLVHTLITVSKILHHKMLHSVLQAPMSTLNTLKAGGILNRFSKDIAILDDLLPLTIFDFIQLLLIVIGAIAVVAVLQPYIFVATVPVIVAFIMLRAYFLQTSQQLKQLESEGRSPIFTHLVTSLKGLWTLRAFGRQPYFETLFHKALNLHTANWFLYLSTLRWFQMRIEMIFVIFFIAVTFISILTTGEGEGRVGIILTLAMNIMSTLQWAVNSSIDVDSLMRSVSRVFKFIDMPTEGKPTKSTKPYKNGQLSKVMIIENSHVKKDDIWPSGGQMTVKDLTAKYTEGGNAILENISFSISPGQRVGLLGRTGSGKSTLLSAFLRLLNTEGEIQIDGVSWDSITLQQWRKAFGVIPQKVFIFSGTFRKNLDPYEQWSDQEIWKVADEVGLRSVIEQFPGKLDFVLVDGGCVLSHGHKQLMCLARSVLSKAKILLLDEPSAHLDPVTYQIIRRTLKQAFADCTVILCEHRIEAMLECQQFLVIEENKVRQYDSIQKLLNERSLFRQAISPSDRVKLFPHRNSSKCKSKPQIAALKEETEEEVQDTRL

mutant CFTR = target: T1, mutant CFTR (Homo sapiens, UniProt P13569, E92K); experiment: Ussing chamber forskolin-stimulated chloride transport in Fisher Rat Thyroid cells expressing CFTR mutants; assay type: cell-based; details: Corr4a 15 μM
T1 construct: expressed in transfected cells
T1 sequence (P13569 whole entry E92K): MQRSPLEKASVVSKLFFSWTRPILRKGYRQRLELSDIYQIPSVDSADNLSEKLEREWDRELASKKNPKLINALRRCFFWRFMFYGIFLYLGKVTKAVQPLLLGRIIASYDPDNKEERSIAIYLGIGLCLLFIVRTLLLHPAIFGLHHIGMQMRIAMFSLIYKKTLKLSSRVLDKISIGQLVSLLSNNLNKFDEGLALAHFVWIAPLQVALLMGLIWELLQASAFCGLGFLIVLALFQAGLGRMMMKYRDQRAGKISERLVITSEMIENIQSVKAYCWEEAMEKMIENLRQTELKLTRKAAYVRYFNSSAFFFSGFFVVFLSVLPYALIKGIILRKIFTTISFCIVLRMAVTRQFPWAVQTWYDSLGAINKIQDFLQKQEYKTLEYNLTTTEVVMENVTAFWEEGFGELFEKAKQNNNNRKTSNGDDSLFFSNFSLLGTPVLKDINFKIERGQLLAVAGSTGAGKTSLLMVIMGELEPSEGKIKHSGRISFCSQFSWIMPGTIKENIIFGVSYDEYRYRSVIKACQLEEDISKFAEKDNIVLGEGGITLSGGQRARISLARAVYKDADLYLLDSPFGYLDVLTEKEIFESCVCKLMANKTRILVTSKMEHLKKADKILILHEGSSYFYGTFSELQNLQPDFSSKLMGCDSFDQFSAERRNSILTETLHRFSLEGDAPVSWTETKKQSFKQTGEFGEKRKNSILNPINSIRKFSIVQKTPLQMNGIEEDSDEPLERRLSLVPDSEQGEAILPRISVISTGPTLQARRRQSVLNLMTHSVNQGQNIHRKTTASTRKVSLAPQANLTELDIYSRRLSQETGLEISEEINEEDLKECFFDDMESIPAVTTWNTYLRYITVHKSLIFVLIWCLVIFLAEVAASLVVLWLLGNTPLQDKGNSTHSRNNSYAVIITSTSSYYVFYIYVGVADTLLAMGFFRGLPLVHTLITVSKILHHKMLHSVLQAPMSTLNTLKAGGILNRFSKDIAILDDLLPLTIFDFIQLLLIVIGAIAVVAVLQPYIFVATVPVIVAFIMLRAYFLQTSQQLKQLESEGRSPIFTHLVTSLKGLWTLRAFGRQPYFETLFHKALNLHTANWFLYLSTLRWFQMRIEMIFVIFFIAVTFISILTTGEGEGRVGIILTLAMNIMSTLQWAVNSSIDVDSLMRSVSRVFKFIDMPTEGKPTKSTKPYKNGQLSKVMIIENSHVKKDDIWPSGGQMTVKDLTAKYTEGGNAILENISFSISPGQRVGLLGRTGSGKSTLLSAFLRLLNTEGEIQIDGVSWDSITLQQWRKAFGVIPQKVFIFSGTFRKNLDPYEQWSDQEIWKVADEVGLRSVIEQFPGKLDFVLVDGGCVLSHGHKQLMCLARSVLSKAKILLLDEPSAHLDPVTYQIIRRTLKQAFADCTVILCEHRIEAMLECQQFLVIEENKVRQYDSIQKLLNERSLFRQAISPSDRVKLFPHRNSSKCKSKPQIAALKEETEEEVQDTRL
Description: Ussing chamber techniques with Fisher Rat Thyroid cells that are stably transfected with the indicated form of CFTR are used to record the transepithelial current (IT) resulting from CFTR-mediated chloride transport (Van Goor, et al., 2009, PNAS, 106: 18825-30). Standard conditions for Ussing chamber electrophysiological with different forms of CFTR measured forskolin (10 μM)-stimulated chloride transport that peaked at 205.5 μA/cm2 for normal CFTR.

V232D-CFTR = V232D-CFTR (Homo sapiens, UniProt P13569, V232D); details: cited from earlier work
Sequence of V232D-CFTR (P13569 whole entry V232D, the tested form may be a part): as the sequence (P13569 whole entry E92K) above, with K92E, V232D counted along it

[1] = target: T2, N-terminal CFTR fragments (Homo sapiens, UniProt P13569); experiment: Steady-state accumulation of CFTR fragments, western blot, HEK293 cells; assay type: cell-based; details: bortezomib 10 μM
T2 construct: Indicated CFTR fragments were generated via introduction of a stop codon after the specified residue; expressed in transfected cells; host or cells: HEK293, transient, pcDNA3.1(+)-CFTR derivatives
Description: Steady-state levels of CFTR and its mutants are determined by western blot analysis. HEK293 cells are transiently transfected with the indicated plasmids (Grove, et al., 2011, Mol Biol Cell, 22: 301-14). The transfected cells are allowed to recover for approximately 18 hrs before addition of DMEM and then supplemented with lumacaftor or DMSO (control). The cells are incubated with the correctors for 24 hrs before isolating the cells for western blot analysis. The harvested cells are diluted with 2×SDS sample buffer (100 mM Tris-HCl (pH 6.8)/4% SDS/0.05% Bromophenol Blue/20% glycerol), sonicated, and heated at 37° C. prior to resolving the proteins on SDS-PAGE gels. The proteins are transferred to nitrocellulose membranes and the membranes are probed with the designated antibodies. Tubulin is used to indicate loading controls.
A set of CFTR fragments with domain boundaries that permitted them to accumulate in unstable or stable states are expressed in HEK293 cells, and the effect of 5 μM lumacaftor on the accumulation of different fragments is determined. As a point of reference, the impact of the proteasome inhibitor bortezomib on CFTR fragment accumulation is also measured.
Cells are treated for 4 hours with bortezomib or 18 hours at 37° C. with lumacaftor. The amount of CFTR fragment accumulation is determined by immunoblot.
To identify regions of CFTR required for lumacaftor activity, different length CFTR fragments were expressed in HEK-293 cells and their steady-state accumulation and half-life were quantified in biochemical assays (FIGS. 1A and B; FIG. 2). Since CFTR folding initiates cotranslationally and channel assembly is completed post-translationally (Higgins, 1992, Annual Review of Cell Biology, 8:67-113), CFTR fragments which may resemble folding intermediates have been used to study CFTR biogenesis. The underlying rationale is that differences in accumulation or half-life between different length CFTR fragments are believed to reflect differences in the stability of the protein conformation and resistance to endoplasmic reticulum associated degradation (ERAD). […] Differences in accumulation and halflife of CFTR fragments have been used successfully to identify Hsp70- and calnexin-dependent steps in CFTR folding and degradation pathways (Farinha and Amaral, 2005, Mol Cell Biol, 25:5242-52; Lukacs and Verkman, […], EMBO Journal, 13:6076-86; Meacham et al., 1999, EMBO Journal, 18:1492-1505; Okiyoneda et al., 2004, Mol Biol Cell, 15:563-574), to identify defective interactions between MSD1, NBD1 and MSD2 as an underlying cause of premature degradation of ΔF508-CFTR (Cui et al., 2007, J Mol Biol, 365:981-994; Du and Lukacs, 2009, Molecular Biology of the Cell, 20:1903-1915; Younger et al., 2006, Cell, 126:571-582), and to identify MSD2 as the site of action of the CFTR corrector, Corr-4a.

[2] = compared to CFTR^430 and CFTR^653

What does the source list for `COc1ccc(Cl)cc1Nc1nc(-c2sc(NC(=O)c3ccccc3)nc2C)cs1` [Corr-4a]?
ΔF508-CFTR function (ΔF508-CFTR): partially restored; restoration of E92K-CFTR function (mutant CFTR): could not restore; V232D-CFTR biogenesis and function (V232D-CFTR): to normal levels

With `CC(C)C[C@H](NC(=O)[C@H](Cc1ccccc1)NC(=O)c1cnccn1)B(O)O` [bortezomib] as the molecule, how does the “increase in accumulation of CFTR^370” value ([1]; 4 hours) read?
The value was 10 fold.

What about the “increase in accumulation of CFTR^530” value ([1]; 4 hours) of the same molecule?
Its value is 10 fold.

And the “sensitivity of CFTR^430 accumulation to proteasome inhibition” value ([1]; 4 hours)?
Its value is “relatively insensitive”.

What about the “sensitivity of CFTR^653 accumulation to proteasome inhibition” value ([1]; 4 hours) of the same molecule?
Its value is “relatively insensitive”.

What about the “effect of proteasome inhibition on CFTR^370” value [1, 2] of the same molecule?
Its value is “more susceptible; also recorded: able to increase the stability”.

What about the “effect of proteasome inhibition on CFTR^530” value [1, 2] of the same molecule?
The value was “more susceptible”.
